Among the data in patent publication US20120083501A1, “COMPOUNDS FOR TREATING NEURODEGENERATIVE DISEASES” (priority 2010, published 2012) are IC50 values, retold here.

For the experiment, the target named is T1, BACE1 (Homo sapiens, UniProt P56817).
T1 construct: endogenous in cells; host or cells: HEK-293 cells stably transfected with wild type APP695
T1 sequence (P56817 46-501): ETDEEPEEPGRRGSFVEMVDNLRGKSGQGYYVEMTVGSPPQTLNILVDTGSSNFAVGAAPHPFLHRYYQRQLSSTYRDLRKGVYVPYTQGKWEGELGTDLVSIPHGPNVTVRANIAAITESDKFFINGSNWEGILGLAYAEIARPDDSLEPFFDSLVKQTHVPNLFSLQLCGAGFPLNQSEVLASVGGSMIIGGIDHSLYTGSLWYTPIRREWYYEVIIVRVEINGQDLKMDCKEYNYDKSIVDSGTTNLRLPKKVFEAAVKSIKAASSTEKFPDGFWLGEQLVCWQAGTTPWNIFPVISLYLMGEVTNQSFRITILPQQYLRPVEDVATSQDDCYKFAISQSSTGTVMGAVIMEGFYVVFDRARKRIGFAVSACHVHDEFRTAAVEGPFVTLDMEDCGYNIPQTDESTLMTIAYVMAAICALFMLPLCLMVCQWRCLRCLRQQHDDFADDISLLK
Nature of the experiment: Cellular BACE1 Inhibition Assay (in vitro cellular Amyloidβ 1-40 production, HTRF immunoassay). It counts as cell-based. The note with it: inhibition of Amyloidβ 1-40 production; HEK-293 cells stably transfected with wild type APP695; 48 hours incubation; single assay or mean of multiple assays. The protocol: The BACE inhibition properties of the compounds of the invention may be determined by the following in vitro cellular Amyloidβ 1-40 production assay.
Inhibition of Amyloidβ 1-40 production was determined by incubating cells with compound for 48 hours and quantifying the level of Amyloidβ 1-40 using an homogeneous time-resolved fluorescence (“HTRF”) immunoassay.
Materials and Methods: HEK-293 cells stably transfected with a DNA construct containing the coding sequence for the wild type APP695 sequence were grown in Dulbecco's Modified Eagle Medium (“DMEM”) supplemented with 10% fetal bovine serum, penicillin/streptomycin and 150 μg/mL G418. Cells were plated in 96-well plates at 35,000 cells/well and allowed to attach for 8-12 hours. Media was changed to DMEM supplemented with 10% fetal bovine serum, penicillin/streptomycin 15 minutes prior to compound addition. Diluted compounds were then added at a final concentration of 0.5% DMSO. After 48 hours, 4 μL of media from each well was added to a corresponding well of a 384 well plate (Perkin Elmer Cat#6008280) containing the HTRF reagents. HTRF reagents were obtained from the CisBio Amyloidβ 1-40 peptide assay kit (Cat# 62B40PEC) and were prepared as follows anti-peptide β (1-40)-Cryptate and anti-peptide β (1-40)-XL655 were stored in 2 plate aliquots at −80° C. Diluent and Reconstitution buffer were stored at 4° C. Aliquots of the two antibodies were diluted 1:100 with Reconstitution buffer, and this mixture was diluted 1:2 with Diluent. 12 μL of the reagent mixture was added to the required wells of the 384 well assay plate. The assay plate was incubated at 4° C. for 17 hours and then analyzed for fluorescence at 665 and 620 nm. The reported IC50 below may be from a single assay or the mean of multiple assays.
Consider `CN1C(=O)[C@]2(N=C1N)c1cc(-c3cncc(Cl)c3)ccc1O[C@]1(C)CCCO[C@H]12` (relative stereo) [Example 62, (4S*,4a′R*,10a′S*)-2-amino-8′-(5-chloropyridin-3-yl)-1,4a′-dimethyl-3′,4′,4a′,10a′-tetrahydro-2′H-spiro[imidazole-4,10′-pyrano[3,2-b]chromen]-5(1H)-one], for which the IC50 (usually the concentration needed to halve the response being measured) is 2.3 nM.

On to `CN1C(=O)C2(N=C1N)c1cc(-c3cncc(Cl)c3)ccc1O[C@H]1CCCC[C@H]12` (relative stereo) [Example 33, cis 2-amino-7′-(5-chloropyridin-3-yl)-1-methyl-1′,2′,3′,4′,4a′,9a′-hexahydrospiro[imidazole-4,9′-xanthen]-5(1H)-one], for which inhibition was half-maximal at 32.2 nM (IC50).

`CN1C(=O)C2(N=C1N)c1cc(-c3cc(F)cc(Cl)c3)ccc1OC1CC3(CCC12)OCCO3` (stereo not drawn) [Example 10, 2″-amino-7′-(3-chloro-5-fluorophenyl)-1″-methyl-1″,2′,4′,4′a,5″,9′a-hexahydro-1′H-dispiro[1,3-dioxolane-2,3′-xanthene-9′,4″-imidazole]-5″-one] showed an IC50 of 168 nM.

On to `CN1C(=O)C2(N=C1N)c1cc(-c3cc(F)cc(Cl)c3)ccc1OC1CC(C)(O)CCC12` (stereo not drawn) [Example 7, 2-amino-7′-(3-chloro-5-fluorophenyl)-3′-hydroxy-1,3′-dimethyl-1′,2′,3′,4′,4a′,9a′-hexahydrospiro[imidazole-4,9′-xanthen]-5(1H)-one], for which the half-maximal inhibitory concentration (IC50) amounted to 35.9 nM.

`CN1C(=O)C2(N=C1N)c1cc(-c3cncc(Cl)c3)ccc1OC1CC(F)(F)CCC12` (stereo not drawn) [Example 17, 2-amino-7′-(5-chloropyridin-3-yl)-3′,3′-difluoro-1-methyl-1′,2′,3′,4′,4a′,9a′-hexahydrospiro[imidazole-4,9′-xanthen]-5(1H)-one]: the IC50 amounted to 74.1 nM.

The molecule `CN1C(=O)C2(N=C1N)c1cc(-c3cc(F)cc(Cl)c3)ccc1OC1CC(OCC3CC3)CCC12` (stereo not drawn) [Example 29, 2-amino-7′-(3-chloro-5-fluorophenyl)-3′-(cyclopropylmethoxy)-1-methyl-1′,2′,3′,4′,4a′,9a′-hexahydrospiro[imidazole-4,9′-xanthen]-5(1H)-one] had an IC50 of 554 nM.

Turning to `CN1C(=O)C2(N=C1N)c1cc(-c3cccc(Cl)c3)ccc1OC1CC(F)(F)CCC12` (stereo not drawn) [Example 35, 2-amino-7′-(3-chlorophenyl)-3′,3′-difluoro-1-methyl-1′,2′,3′,4′,4a′,9a′-hexahydrospiro[imidazole-4,9′-xanthen]-5(1H)-one], half-maximal inhibition (IC50) was put at 271 nM.

Take `CN1C(=O)C2(N=C1N)c1cc(-c3cncnc3)ccc1OC1CC(F)(F)CCC12` (stereo not drawn) [Example 18, 2-amino-3′,3′-difluoro-1-methyl-7′-(pyrimidin-5-yl)-1′,2′,3′,4′,4a′,9a′-hexahydrospiro[imidazole-4,9′-xanthen]-5(1H)-one]: half-maximal inhibition (IC50) required 125 nM.

For the molecule `CN1C(=O)[C@]2(N=C1N)c1cc(-c3cncc(C#N)c3)ccc1O[C@H]1CCCO[C@@]12C` [Example 86, 5-((4S,4a′S,10a′R)-2-amino-1,10a′-dimethyl-5-oxo-1,3′,4′,4a′,5,10a′-hexahydro-2′H-spiro[imidazole-4,10′-pyrano[3,2-b]chromen]-8′-yl)nicotinonitrile], the midpoint of inhibition, the IC50, lay at 4.6 nM.

The molecule `CN1C(=O)C2(N=C1N)c1cc(-c3cccnc3F)ccc1OC1CCC(F)(F)CC12` (stereo not drawn) [Example 41, 2-amino-2′,2′-difluoro-7′-(2-fluoropyridin-3-yl)-1-methyl-1′,2′,3′,4′,4a′,9a′-hexahydrospiro[imidazole-4,9′-xanthen]-5(1H)-one] came in with an IC50 of 41.4 nM.

The molecule `CN1C(=O)[C@]2(N=C1N)c1cc(-c3cccnc3F)ccc1O[C@H]1CCOCC12F` (stereo partly drawn) [Example 99, (4R,4a′S)-2-amino-10a′-fluoro-8′-(2-fluoropyridin-3-yl)-1-methyl-3′,4′,4a′,10a′-tetrahydro-1′H-spiro[imidazole-4,10′-pyrano[4,3-b]chromen]-5(1H)-one] displayed an IC50 of 241 nM.

As for `CN1C(=O)C2(N=C1N)c1cc(-c3cc(F)cc(Cl)c3)ccc1OC1CCCC[C@@H]12` (stereo partly drawn) [Example 12], the IC50 came to 11.4 nM.
